Results from PubChem BioAssay AID1671276.

Molecular target: Ephrin type-B receptor 4 (Homo sapiens) (UniProt P54760)
Assay: inhibition of human ephrin receptor B4 activity – biochemical, Z'-LYTE, FRET, protease-coupled, direct format, dose response (AID 1671276)
Conditions: EPHB4 kinase, Z'-LYTE FRET peptide phosphorylation

Sequence of Ephrin type-B receptor 4 (Homo sapiens) (P54760 whole entry, looked up): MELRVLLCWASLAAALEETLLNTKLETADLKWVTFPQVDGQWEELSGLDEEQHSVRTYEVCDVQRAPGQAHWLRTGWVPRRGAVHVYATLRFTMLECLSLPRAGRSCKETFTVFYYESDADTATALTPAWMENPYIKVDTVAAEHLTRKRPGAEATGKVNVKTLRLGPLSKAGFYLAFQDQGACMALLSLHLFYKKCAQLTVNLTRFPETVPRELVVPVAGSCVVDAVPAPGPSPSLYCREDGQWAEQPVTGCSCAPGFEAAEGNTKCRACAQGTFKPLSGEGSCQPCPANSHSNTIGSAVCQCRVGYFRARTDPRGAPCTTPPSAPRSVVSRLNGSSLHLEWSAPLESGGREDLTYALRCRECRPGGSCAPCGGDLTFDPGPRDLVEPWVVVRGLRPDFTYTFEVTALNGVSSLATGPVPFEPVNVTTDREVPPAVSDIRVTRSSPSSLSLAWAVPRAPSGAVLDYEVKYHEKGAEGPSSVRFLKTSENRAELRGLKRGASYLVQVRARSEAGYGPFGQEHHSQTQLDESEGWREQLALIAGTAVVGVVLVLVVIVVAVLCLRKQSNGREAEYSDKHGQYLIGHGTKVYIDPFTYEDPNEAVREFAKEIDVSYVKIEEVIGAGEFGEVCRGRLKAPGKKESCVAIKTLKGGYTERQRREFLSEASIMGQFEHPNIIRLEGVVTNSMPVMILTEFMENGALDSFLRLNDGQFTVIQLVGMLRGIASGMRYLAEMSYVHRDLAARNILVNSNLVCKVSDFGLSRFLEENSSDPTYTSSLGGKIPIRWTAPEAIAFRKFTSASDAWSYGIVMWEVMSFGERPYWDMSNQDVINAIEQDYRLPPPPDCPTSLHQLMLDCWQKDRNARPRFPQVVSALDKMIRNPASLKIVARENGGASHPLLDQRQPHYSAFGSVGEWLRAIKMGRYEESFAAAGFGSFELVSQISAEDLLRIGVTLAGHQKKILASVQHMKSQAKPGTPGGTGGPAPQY

COc1cc2ncnc(Nc3cccc(Cl)c3)c2cc1OC
IC50: 1590 nM
